# Values quoted from earlier work in patent US9314478B2, “Method of making an anhydrous, fat soluble, chewable drug delivery formulation” (Argenta Manufacturing Limited, priority 2013, dated 2016).
row,Compound,Aqueous solubility
1,Milbemycin oxime,Poor
2,Cc1cnc(NC(=O)C2=C(O)c3ccccc3S(=O)(=O)N2C)s1 [Meloxicam],Poor
3,CC(C(=O)O)c1ccc2c(c1)[nH]c1ccc(Cl)cc12 (stereo not shown) [Carprofen],Poor
4,CCCOc1ccc2nc(NC(=O)OC)[nH]c2c1 [Oxibendazole],Poor

# Other lines, results leading:
row,Aqueous solubility,Compound
1,Poor,CN1CCCN=C1/C=C/c1cccs1 [Pyrantel]
2,Soluble,Spinosad
3,Soluble,O=C(C1CCCCC1)N1CC(=O)N2CCc3ccccc3C2C1 (stereo not shown) [Praziquantel]
